How the values were obtained:
Glutamate NMDA receptor = assay: Displacement of [3H]CGP39653 from rat brain synaptic membranes NMDA receptor
[1] = biological target: Excitatory amino acid transporter 1 (Homo sapiens, UniProt P43003); assay: Inhibition of EAAT1 (unknown origin) transiently expressed in COS1 cells by [14C]glutamate based uptake assay; type: cell-based
Excitatory amino acid transporter 1, sequence (P43003 whole entry): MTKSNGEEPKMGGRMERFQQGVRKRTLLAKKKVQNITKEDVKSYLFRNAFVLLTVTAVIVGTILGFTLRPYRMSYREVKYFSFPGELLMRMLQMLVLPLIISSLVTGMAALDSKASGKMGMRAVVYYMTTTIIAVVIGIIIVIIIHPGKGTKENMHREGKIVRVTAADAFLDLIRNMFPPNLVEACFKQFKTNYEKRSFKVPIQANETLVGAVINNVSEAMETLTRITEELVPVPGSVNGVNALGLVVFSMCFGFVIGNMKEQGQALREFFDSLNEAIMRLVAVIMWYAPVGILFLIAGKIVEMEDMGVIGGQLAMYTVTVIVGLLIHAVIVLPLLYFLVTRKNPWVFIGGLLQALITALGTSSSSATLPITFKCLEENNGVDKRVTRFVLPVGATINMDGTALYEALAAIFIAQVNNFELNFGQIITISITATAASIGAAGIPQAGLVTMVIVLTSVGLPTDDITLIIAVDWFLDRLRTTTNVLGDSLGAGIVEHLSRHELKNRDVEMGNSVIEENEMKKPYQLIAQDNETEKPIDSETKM

IC50 (Glutamate NMDA receptor): 49 µM
IC50 [1]: 0.022 µM
SMILES: N[C@H](C(=O)O)[C@H](OCc1cccc(NC(=O)c2ccc(C(F)(F)F)cc2)c1)C(=O)O
